# Reference: article PMC6857134, “Antimicrobial functional divergence of the cecropin antibacterial peptide gene family in Musca domestica” (Parasites & Vectors, 2019)
# Residues, ends and D or L forms follow the SMILES beside them. No end group written: not given here.
# How the values were obtained:
# A. baumannii (4367992) = experiment: Time-killing assay (growth curve, absorbance at 600 nm); assay type: cell-based, Acinetobacter baumannii
# Description: The effect of peptides on the growth of an A. baumannii (4367992) isolate was examined as follows: the strain was cultured in nutrient agar for 18–20 h and adjusted to 0.5 McFarland units with MHB medium, then diluted 1:20 in MHB medium. Each peptide was added to one culture tube at a final concentration of 1× MIC or 2× MIC. […] The cultures were incubated for 24 h at 37 °C with shaking at 200× rpm, and the absorbance at 600 nm of 1 ml aliquots was recorded at 0.5–2 h intervals.
# A. baumannii 4367992 = experiment: MIC by broth microdilution; assay type: cell-based, Acinetobacter baumannii; settings: 37 °C, 24 h; for MIC / inhibitory concentration against A. baumannii: strain not given, broth microdilution
# Description: (§1) Evaluation of the MIC of synthetic peptides was performed using broth microdilution techniques according to the guidelines of the Clinical and Laboratory Standards Association (CLSI). The antimicrobial spectrum and biological activity of the above chemically synthesized peptides were tested against six Gram-positive bacteria, five Gram-negative bacteria and one fungus. Overnight cultures of the 11 bacteria were grown in MHB at 37 °C and C. albicans was grown in Sabouraud dextrose broth (SDB) medium (Sangon, Shanghai, China) and cultured at 37 °C to mid-log phase and diluted to 1.5 × 10^6 CFU/ml. In a polypropylene 96-well round-bottom plate, 50 μl of bacteria was mixed with 50 μl of designed synthetic peptide dissolved in sterile distilled water (final concentration of 0–64 μM). Sterile distilled water was used as a negative control and polymyxin B dissolved in sterile distilled water as a positive control.
# [1] = tested on: tested microorganisms (Gram-positive bacteria, Gram-negative bacteria, one fungus); experiment: MIC by broth microdilution, summary over the panel of tested microorganisms; assay type: cell-based; settings: at concentrations up to 32 μM
# Description: as §1
# [2] = tested on: extensive-drug-resistant A. baumannii (4367992); experiment: Leakage of 260 nm absorbing material; assay type: cell-based, Acinetobacter baumannii; settings: 0.5× MIC and 2× MIC, 0–8 h, 37 °C, 1 × 10^6 CFU/ml; three independent experiments
# Description: The reference method was slightly modified, taking the logarithmic growth phase of extensive-drug-resistant A. baumannii (4367992) as detected bacteria. Five millilitres of bacterial suspension (1 × 10^6 CFU/ml) was treated with different concentrations of antimicrobial peptides (0.5× MIC, 2× MIC). After being placed at 37 °C and 150× rpm, aliquots (0.5 ml) of the treated bacterial suspension were removed at different intervals (0, 0.5, 1, 2, 4, 6 and 8 h). The aliquots were centrifuged (1000× rpm, 5 min) and the absorbance of supernatant was measured at 260 nm, using PBS as the control.
compound,measurement,setting,value
"CC[C@H](C)CCCCC(=O)N[C@@H](CCN)C(=O)N[C@H](C(=O)N[C@@H](CCN)C(=O)N[C@H]1CCNC(=O)[C@H]([C@@H](C)O)NC(=O)[C@H](CCN)NC(=O)[C@H](CCN)NC(=O)[C@H](CC(C)C)NC(=O)[C@@H](Cc2ccccc2)NC(=O)[C@H](CCN)NC1=O)[C@@H](C)O [polymyxin B, reference compound] (HELM PEPTIDE1{[CC[C@H](C)CCCCC(=O)[*:2]].[Dab].T.[Dab].[Dab].[Dab].[dF].L.[Dab].[Dab].T}$PEPTIDE1,PEPTIDE1,5:R3-11:R2$$$V2.0; N-terminus assumed; bridges inferred)",duration of antibacterial effect on A. baumannii,"A. baumannii (4367992); Cec4 at 1× MIC and 2× MIC, polymyxin B at 1× MIC (1.05 μM), MHB, 37 °C, 200 rpm, absorbance 600 nm over 24 h, three independent experiments",≤ 12 h
same,MIC,"A. baumannii 4367992; A. baumannii 4367992 (extensive-drug-resistant isolate), broth microdilution (CLSI), MHB, visual growth",1.05 µM
GWLKDFGRRIERVGQHTRDATIQAIGVAQQATDVAATLKGK [Cec9],inhibitory effect on the other experimental strains (other than E. coli),[1],no inhibitory effect
GWLKKIGKKIERVGQNTRDATIQAIGVAQQAANVAATLKGK [Cec4],leakage of 260 nm absorbing material (maximum absorbance at 260 nm),[2],dose-dependent increase
same,"time-kill kinetics, killing pattern",A. baumannii (4367992); A. baumannii in the logarithmic growth phase,rapid and concentration-dependent killing pattern
same,MIC / inhibitory concentration against A. baumannii,A. baumannii 4367992,0.5 µM
GWLKKVGKKIERVGQHTRDATIQGLGVAQQAANVVATVKGK [Cec3],MIC / inhibitory concentration against A. baumannii,A. baumannii 4367992,32 µM
